Measurements taken from ChEMBL document CHEMBL1201862, “PubChem BioAssay data set” (2004).
“And” between values parts separate entries of the source, which are not always exact repeats. Equal entries are not always repeated.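 All cell lines were grown in 96-well plates and treated with compound for 48 hours. GI50 is the concentration that inhibits growth by half.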 The source made the active and inactive calls. Rule as the data show it: active = GI50 up to about 1.1 µM and inactive = higher.

Experiments:
Experiment in all cases: inhibition of tumour cell growth, NCI panel, 48 h
IGROV-1 = system: IGROV-1
RXF 393 = system: RXF 393
EKVX = system: EKVX
TK-10 = system: TK-10
DU-145 = system: DU-145
SR = system: SR
RPMI-8226 = system: RPMI-8226
U-251 = system: U-251
MDA-N = system: MDA-N
HL-60 = system: HL-60
HOP-62 = system: HOP-62
NCI-H460 = system: NCI-H460
Hs-578T = system: Hs-578T
NCI/ADR-RES = system: NCI/ADR-RES
HT-29 = system: HT-29
SK-MEL-5 = system: SK-MEL-5
PC-3 = system: PC-3
K562 = system: K562
A549 = system: A549

SMILES	GI50 (IGROV-1)	GI50 (RXF 393)	GI50 (EKVX)	GI50 (TK-10)	GI50 (DU-145)	GI50 (SR)	GI50 (RPMI-8226)	GI50 (U-251)	GI50 (MDA-N)	GI50 (HL-60)	GI50 (HOP-62)	GI50 (NCI-H460)	GI50 (Hs-578T)	GI50 (NCI/ADR-RES)	GI50 (HT-29)	GI50 (SK-MEL-5)	GI50 (PC-3)	GI50 (K562)	GI50 (A549)
O=[N+]([O-])CC(SCc1ccccc1)c1ccc2c(c1)OCO2 (stereo not drawn)	5.6 µM (inactive)	1.82 µM (inactive)	20.2 µM (inactive)	10.8 µM (inactive)	14.5 µM (inactive)	3.13 µM (inactive)	1.57 µM (inactive)	6.59 µM (inactive)	2.45 µM (inactive)	1.58 µM (inactive)	17.4 µM (inactive)	14.8 µM (inactive)	6.31 µM (inactive)	9.57 µM (inactive)	2.61 µM (inactive)	12.2 µM (inactive)	16.8 µM (inactive)	1.55 µM (inactive)	7.67 µM (inactive)
COc1cc(C2c3cc4c(cc3OC(NNS(=O)(=O)c3ccc(C)cc3)C2C)OCO4)cc(OC)c1OC (stereo not drawn)	2.68 µM (inactive)	1.76 µM (inactive)	2.05 µM (inactive)	6.7 µM (inactive)	3.83 µM (inactive)	0.839 µM (active)	2.08 µM (inactive)	2.14 µM (inactive)	0.289 µM (active)	0.5 µM (active)	0.817 µM (active)	2.13 µM (inactive)	1.26 µM (inactive)	3.24 µM (inactive)	1.34 µM (inactive)	0.883 µM (active)	1.28 µM (inactive)	0.55 µM (active)	2.6 µM (inactive)
OCC(S)CS.[Bi] (stereo not drawn)	18.3 µM (inactive)	10.7 µM (inactive)	18 µM (inactive)	17.8 µM (inactive)	18.3 µM (inactive)	4.06 µM (inactive)	2.93 µM (inactive)	15.1 µM (inactive)	14.1 µM (inactive)	16.2 µM (inactive)	19.1 µM (inactive)	13.4 µM (inactive)	15.9 µM (inactive)	36.1 µM (inactive)	19 µM (inactive)	31.4 µM (inactive)	13.1 µM (inactive)	5.68 µM (inactive)	28 µM (inactive)
O=C1N/C(=N/N=C\C(O)C(O)C(O)C(O)CO)N/C1=C/c1ccc(Cl)cc1 (stereo not drawn)	> 100 µM (inactive)	> 100 µM (inactive)	> 100 µM (inactive) and 84.5 µM (inactive)	> 100 µM (inactive)	> 100 µM (inactive)	47.2 µM (inactive)	> 100 µM (inactive)	> 100 µM (inactive)	> 100 µM (inactive)	14.4 µM (inactive) and 23.8 µM (inactive)	> 100 µM (inactive)	> 100 µM (inactive)	> 100 µM (inactive)	> 100 µM (inactive)	> 100 µM (inactive)	> 100 µM (inactive)	> 100 µM (inactive)	55.6 µM (inactive) and 27.7 µM (inactive)	> 100 µM (inactive)
O=C(Cc1ccc(Cl)c(Cl)c1)NCCCN1CCN(CCCN2CCCCC2)CC1	27.1 µM (inactive)	13.2 µM (inactive)	19.2 µM (inactive)	17.2 µM (inactive)	40.5 µM (inactive)	11.7 µM (inactive)	2.71 µM (inactive)	15.7 µM (inactive)	2.45 µM (inactive)	17.8 µM (inactive)	17 µM (inactive)	16.6 µM (inactive)	14.1 µM (inactive)	> 100 µM (inactive)	10.8 µM (inactive)	10.4 µM (inactive)	18.5 µM (inactive)	2.17 µM (inactive)	20.6 µM (inactive)
Cc1ccc(NC(=O)/C(Cc2cc(=O)oc3cc(O)ccc23)=N\NC(=O)C[N+](C)(C)C)cc1C	> 100 µM (inactive)	66.2 µM (inactive)	> 100 µM (inactive)	> 100 µM (inactive)	> 100 µM (inactive)	> 100 µM (inactive)	> 100 µM (inactive)	> 100 µM (inactive)	> 100 µM (inactive)	> 100 µM (inactive)	> 100 µM (inactive)	> 100 µM (inactive)	> 100 µM (inactive)	> 100 µM (inactive)	> 100 µM (inactive)	> 100 µM (inactive)	> 100 µM (inactive)	> 100 µM (inactive)	> 100 µM (inactive)
c1ccc(CN2CCC(=NN3CCCCC3)CC2)cc1	> 100 µM (inactive)	35.1 µM (inactive)	> 100 µM (inactive)	86.7 µM (inactive)	> 100 µM (inactive)	34.4 µM (inactive)	27.7 µM (inactive)	59.6 µM (inactive)	83 µM (inactive)	20.1 µM (inactive)	> 100 µM (inactive)	46.6 µM (inactive)	35 µM (inactive)	> 100 µM (inactive)	32.4 µM (inactive)	30.3 µM (inactive)	54.8 µM (inactive)	31.1 µM (inactive)	> 100 µM (inactive)
CC(C)=CCNc1nc(Cl)nc2[nH]cnc12	> 100 µM (inactive)	25.2 µM (inactive)	15.7 µM (inactive)	71.6 µM (inactive)	> 100 µM (inactive)	37 µM (inactive)	> 100 µM (inactive)	–	> 100 µM (inactive)	> 100 µM (inactive)	27.9 µM (inactive)	16.7 µM (inactive)	62.8 µM (inactive)	35.7 µM (inactive)	> 100 µM (inactive)	29.3 µM (inactive)	> 100 µM (inactive)	32.1 µM (inactive)	28.8 µM (inactive)
c1ccc2c(c1)nc1n2CCSC1	74.8 µM (inactive)	> 100 µM (inactive)	> 100 µM (inactive)	> 100 µM (inactive)	> 100 µM (inactive)	> 100 µM (inactive)	> 100 µM (inactive)	> 100 µM (inactive)	> 100 µM (inactive)	> 100 µM (inactive)	> 100 µM (inactive)	> 100 µM (inactive)	> 100 µM (inactive)	> 100 µM (inactive)	> 100 µM (inactive)	> 100 µM (inactive)	> 100 µM (inactive)	> 100 µM (inactive)	> 100 µM (inactive)
Brc1c2c(c(Br)c3nsnc13)N=S=N2	23.5 µM (inactive)	15 µM (inactive)	27.2 µM (inactive)	17.4 µM (inactive)	> 87.1 µM (inactive)	4.82 µM (inactive)	22 µM (inactive)	23.1 µM (inactive)	26.5 µM (inactive)	3.83 µM (inactive)	3.48 µM (inactive)	25.3 µM (inactive)	21 µM (inactive)	26.7 µM (inactive)	34.4 µM (inactive)	20 µM (inactive)	32.7 µM (inactive)	10.1 µM (inactive)	78.5 µM (inactive)
C[C@]12CCC(=O)C=C1C[C@@H](O)[C@@H]1[C@@H]2CC[C@@]2(C)[C@H]1CC[C@]2(C)O	> 100 µM (inactive)	> 100 µM (inactive)	> 100 µM (inactive)	> 100 µM (inactive)	> 100 µM (inactive)	> 100 µM (inactive)	> 100 µM (inactive)	> 100 µM (inactive)	> 100 µM (inactive)	> 100 µM (inactive)	> 100 µM (inactive)	> 100 µM (inactive)	> 100 µM (inactive)	> 100 µM (inactive)	> 100 µM (inactive)	> 100 µM (inactive)	> 100 µM (inactive)	> 100 µM (inactive)	> 100 µM (inactive)
